Where a name gives a salt, the structure may show the parent alone. ± gives the standard deviation of the averaged measurements.
System: HS729
Experiment: relative viability vs DMSO control (72 h) (fraction); higher = more viable cells
Procedure, shortened: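 After seeding at densities set for 80–90% confluence in 384-well plates, sarcoma cell lines waited 24 h before 2.5 µl of serially diluted compound was added. Source plates held 10 mM down to 0.0002 mM. Plates were incubated 72 h at 37 °C with 5% CO2, with 0.1% DMSO vehicle and a 5 µM positive control, and relative viability was taken from ATPLite as percent growth averaged over up to triplicate wells, with 1 set as full and 0 as none.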

SMILES | relative viability (0.00017 µM) | relative viability (0.00051 µM) | relative viability (0.00152 µM) | relative viability (0.00457 µM) | relative viability (0.01372 µM) | relative viability (0.04115 µM) | relative viability (0.1235 µM) | relative viability (0.3704 µM) | relative viability (1.111 µM) | relative viability (3.333 µM) | relative viability (10 µM)
O=C(Nc1cnn2ccc(N3CCC[C@@H]3c3cc(F)ccc3F)nc12)N1CC[C@H](O)C1 [Larotrectinib] | 1.07 ± 0.041 | 0.958 ± 0.062 | 0.895 ± 0.033 | 0.874 ± 0.029 | 0.939 ± 0.019 | 0.887 ± 0.074 | 0.936 ± 0.021 | 0.905 ± 0.095 | 0.85 ± 0.013 | 0.84 ± 0.094 | 0.849 ± 0.02
C[C@@H]1COCCN1c1cc(-c2ccnn2C)c2ccnc(-c3ccn[nH]3)c2n1 | 0.945 ± 0.068 | 0.894 ± 0.045 | 0.92 ± 0.071 | 0.873 ± 0.041 | 0.849 ± 0.036 | 0.804 ± 0.04 | 0.681 ± 0.019 | 0.634 ± 0.018 | 0.469 ± 0.017 | 0.403 ± 0.033 | 0.373 ± 0.012
CC(C)N1CCN(Cc2cnc(-c3cc(-c4cccc5[nH]ccc45)cc4[nH]ncc34)o2)CC1 [Nemiralisib] | 1.06 ± 0.022 | 0.984 ± 0.026 | 0.98 ± 0.067 | 0.938 ± 0.038 | 0.978 ± 0.059 | 0.97 ± 0.067 | 0.892 ± 0.012 | 0.909 ± 0.063 | 0.787 ± 0.029 | 0.653 ± 0.037 | 0.52 ± 0.029
COc1cccc2c1C(=O)c1c(O)c3c(c(O)c1C2=O)C[C@@](O)(C(=O)CO)C[C@@H]3O[C@H]1C[C@H](N)[C@H](O)[C@H](C)O1 [Doxorubicin Hydrochloride] | 0.93 ± 0.021 | 0.93 ± 0.047 | 0.949 ± 0.054 | 0.946 ± 0.055 | 0.81 ± 0.029 | 0.6943 ± 0.0048 | 0.525 ± 0.041 | 0.303 ± 0.017 | 0.258 ± 0.0095 | 0.136 ± 0.0072 | 0.118 ± 0.0061
Nc1cc(C(F)(F)F)c(-c2cc(N3CCOCC3)nc(N3CCOCC3)n2)cn1 [Buparlisib] | 0.937 ± 0.034 | 0.95 ± 0.015 | 0.936 ± 0.046 | 0.906 ± 0.083 | 0.902 ± 0.062 | 0.89 ± 0.012 | 0.812 ± 0.052 | 0.702 ± 0.059 | 0.568 ± 0.053 | 0.327 ± 0.023 | 0.274 ± 0.026
Cc1cc(Nc2ncnc3ccc(NC4=NC(C)(C)CO4)cc23)ccc1Oc1ccn2ncnc2c1 [Tucatinib] | 1.05 ± 0.04 | 1.05 ± 0.028 | 1.06 ± 0.029 | 0.987 ± 0.06 | 0.974 ± 0.032 | 0.965 ± 0.061 | 0.967 ± 0.015 | 0.963 ± 0.032 | 0.957 ± 0.034 | 0.924 ± 0.071 | 0.909 ± 0.056
Cc1nc(-c2cn3c(n2)-c2ccc(-c4cnn(C(C)(C)C(N)=O)c4)cc2OCC3)n(C(C)C)n1 [Taselisib] | 0.913 ± 0.018 | 0.935 ± 0.041 | 0.893 ± 0.045 | 0.891 ± 0.076 | 0.798 ± 0.066 | 0.756 ± 0.062 | 0.644 ± 0.053 | 0.629 ± 0.019 | 0.5241 ± 0.0042 | 0.487 ± 0.013 | 0.429 ± 0.014
CN1CCC(COc2cnc(-c3cccc(Cn4nc(-c5cccc(C#N)c5)ccc4=O)c3)nc2)CC1 [Tepotinib] | 1.04 ± 0.054 | 1 ± 0.048 | 0.988 ± 0.034 | 0.983 ± 0.041 | 0.941 ± 0.057 | 0.928 ± 0.055 | 0.987 ± 0.027 | 0.894 ± 0.02 | 0.926 ± 0.038 | 0.831 ± 0.029 | 0.829 ± 0.035
CNC(=O)c1cc(Oc2ccc(NC(=O)Nc3ccc(Cl)c(C(F)(F)F)c3)c(F)c2)ccn1 [Regorafenib] | 1.08 ± 0.027 | 1.07 ± 0.04 | 1.03 ± 0.048 | 1.02 ± 0.046 | 0.945 ± 0.093 | 0.9469 ± 0.0076 | 0.98 ± 0.069 | 0.845 ± 0.014 | 0.824 ± 0.039 | 0.809 ± 0.014 | 0.651 ± 0.014
CCCS(=O)(=O)Nc1ccc(F)c(C(=O)c2c[nH]c3ncc(-c4ccc(Cl)cc4)cc23)c1F [Vemurafenib] | 0.9411 ± 0.0078 | 0.97 ± 0.024 | 0.949 ± 0.051 | 0.949 ± 0.05 | 0.962 ± 0.021 | 0.915 ± 0.03 | 0.955 ± 0.031 | 0.908 ± 0.013 | 0.9276 ± 0.0087 | 0.856 ± 0.065 | 0.73 ± 0.016
COc1c(OCCCN2CCOCC2)ccc2c1N=C(NC(=O)c1cnc(N)nc1)N1CCN=C21 [Copanlisib] | 1.05 ± 0.04 | 0.906 ± 0.03 | 0.919 ± 0.027 | 0.701 ± 0.12 | 0.688 ± 0.028 | 0.6016 ± 0.0023 | 0.483 ± 0.028 | 0.439 ± 0.045 | 0.324 ± 0.035 | 0.306 ± 0.022 | 0.255 ± 0.015
CC(=O)Nc1cccc(-n2c(=O)n(C3CC3)c(=O)c3c(Nc4ccc(I)cc4F)n(C)c(=O)c(C)c32)c1 [Trametinib] | 1.05 ± 0.081 | 0.991 ± 0.036 | 0.918 ± 0.066 | 0.941 ± 0.051 | 0.789 ± 0.021 | 0.766 ± 0.013 | 0.73 ± 0.031 | 0.661 ± 0.018 | 0.638 ± 0.029 | 0.628 ± 0.033 | 0.611 ± 0.031
COCc1c(-c2cc3cc(C)cc(OC)c3s2)c2c(N)ncnn2c1CN1CCNC(=O)C1 [Rogaratinib] | 1.06 ± 0.024 | 0.957 ± 0.068 | 0.967 ± 0.036 | 0.91 ± 0.052 | 0.92 ± 0.11 | 0.882 ± 0.034 | 0.755 ± 0.041 | 0.645 ± 0.037 | 0.582 ± 0.039 | 0.485 ± 0.031 | 0.348 ± 0.024
COc1cc2/c(=N/c3ccc(Br)cc3F)nc[nH]c2cc1OCC1CCN(C)CC1 [Vandetanib] | 0.915 ± 0.04 | 0.896 ± 0.083 | 0.899 ± 0.031 | 0.8994 ± 0.0041 | 0.871 ± 0.022 | 0.843 ± 0.047 | 0.857 ± 0.026 | 0.834 ± 0.068 | 0.746 ± 0.055 | 0.663 ± 0.03 | 0.028 ± 0.0075
CNC(=O)c1ccc(-c2cnc3ncc(Cc4ccc5ncccc5c4)n3n2)cc1F [Capmatinib] | 0.949 ± 0.061 | 0.94 ± 0.025 | 0.945 ± 0.027 | 0.956 ± 0.053 | 0.935 ± 0.021 | 0.956 ± 0.023 | 0.949 ± 0.029 | 0.921 ± 0.054 | 0.924 ± 0.043 | 0.953 ± 0.087 | 0.906 ± 0.066
CCN1CCN(Cc2ccc(Nc3ncc(F)c(-c4cc(F)c5nc(C)n(C(C)C)c5c4)n3)nc2)CC1 [Abemaciclib] | 0.912 ± 0.041 | 0.923 ± 0.014 | 0.892 ± 0.057 | 0.862 ± 0.033 | 0.9097 ± 0.0087 | 0.865 ± 0.029 | 0.818 ± 0.029 | 0.854 ± 0.087 | 0.873 ± 0.025 | 0.886 ± 0.021 | 0.885 ± 0.011
C=CC(=O)N1CCC[C@@H](n2nc(-c3ccc(Oc4ccccc4)cc3)c3c(N)ncnc32)C1 [Ibrutinib] | 1.04 ± 0.018 | 1.01 ± 0.051 | 0.942 ± 0.027 | 0.9505 ± 0.0054 | 0.972 ± 0.088 | 0.927 ± 0.063 | 0.907 ± 0.014 | 0.926 ± 0.03 | 0.94 ± 0.05 | 0.907 ± 0.068 | 0.762 ± 0.03
Cn1cnc2c(F)c(Nc3ccc(Br)cc3F)c(C(=O)NOCCO)cc21 [Binimetinib] | 1.07 ± 0.013 | 1.05 ± 0.063 | 1.06 ± 0.12 | 1.01 ± 0.077 | 0.986 ± 0.035 | 0.933 ± 0.052 | 0.898 ± 0.019 | 0.906 ± 0.023 | 0.906 ± 0.046 | 0.856 ± 0.013 | 0.811 ± 0.012

From the supplement of paper PMC10883282
